# Experimental data taken from ChEMBL document CHEMBL1629583, “Establishment of in vitro susceptibility testing methodologies and comparative activities of piperacillin in combination with the penem {beta}-lactamase inhibitor BLI-489” (2009).
# Tests used:
# Type in all cases: functional
# Citrobacter freundii = assay: Antimicrobial activity against AmpC beta-lactamase-producing Citrobacter freundii clinical isolate after 18 to 22 hrs by broth microdilution method
# Proteus mirabilis = assay: Antimicrobial activity against Proteus mirabilis clinical isolate after 18 to 22 hrs by broth microdilution method
# Acinetobacter junii = assay: Antimicrobial activity against Acinetobacter junii clinical isolate after 18 to 22 hrs by broth microdilution method
# Enterococcus hirae = assay: Antimicrobial activity against Enterococcus hirae clinical isolate after 18 to 22 hrs by broth microdilution method
# Enterococcus avium = assay: Antimicrobial activity against Enterococcus avium clinical isolate after 18 to 22 hrs by broth microdilution method
# Acinetobacter lwoffii = assay: Antimicrobial activity against Acinetobacter lwoffii clinical isolate after 18 to 22 hrs by broth microdilution method
# Haemophilus influenzae = assay: Antimicrobial activity against beta-lactamase-producing Haemophilus influenzae clinical isolate after 18 to 22 hrs by broth microdilution method
# Providencia stuartii = assay: Antimicrobial activity against Providencia stuartii clinical isolate after 18 to 22 hrs by broth microdilution method
# [1] = test system: Staphylococcus epidermidis; assay: Antimicrobial activity against methicillin-susceptible Staphylococcus epidermidis clinical isolate after 18 to 22 hrs by broth microdilution method
# [2] = test system: Acinetobacter haemolyticus; assay: Antimicrobial activity against Acinetobacter haemolyticus clinical isolate after 18 to 22 hrs by broth microdilution method
# Klebsiella aerogenes [3] = assay: Antimicrobial activity against AmpC beta-lactamase-producing Enterobacter aerogenes clinical isolate after 18 to 22 hrs by broth microdilution method
# Enterococcus gallinarum = assay: Antimicrobial activity against Enterococcus gallinarum clinical isolate after 18 to 22 hrs by broth microdilution method
# Enterococcus faecalis = assay: Antimicrobial activity against Enterococcus faecalis clinical isolate after 18 to 22 hrs by broth microdilution method
# Klebsiella pneumoniae [4] = assay: Antimicrobial activity against class A extended spectrum beta-lactamase- producing Klebsiella pneumoniae clinical isolate after 18 to 22 hrs by broth microdilution method
# Escherichia coli [5] = assay: Antimicrobial activity against AmpC beta-lactamase-producing Escherichia coli clinical isolate after 18 to 22 hrs by broth microdilution method
# Klebsiella pneumoniae [6] = assay: Antimicrobial activity against class A extended spectrum beta-lactamase- and class D OXA- producing Klebsiella pneumoniae clinical isolate after 18 to 22 hrs by broth microdilution method
# Klebsiella pneumoniae [7] = assay: Antimicrobial activity against Klebsiella pneumoniae clinical isolate after 18 to 22 hrs by broth microdilution method
# [8] = test system: Staphylococcus epidermidis; assay: Antimicrobial activity against methicillin-resistant Staphylococcus epidermidis clinical isolate after 18 to 22 hrs by broth microdilution method
# Enterococcus durans = assay: Antimicrobial activity against Enterococcus durans clinical isolate after 18 to 22 hrs by broth microdilution method
# Streptococcus pneumoniae [9] = assay: Antimicrobial activity against penicillin-intermediate Streptococcus pneumoniae clinical isolate after 18 to 22 hrs by broth microdilution method
# Burkholderia cepacia = assay: Antimicrobial activity against Burkholderia cepacia clinical isolate after 18 to 22 hrs by broth microdilution method
# Moraxella catarrhalis = assay: Antimicrobial activity against Moraxella catarrhalis clinical isolate after 18 to 22 hrs by broth microdilution method
# Klebsiella aerogenes [10] = assay: Antimicrobial activity against Enterobacter aerogenes clinical isolate after 18 to 22 hrs by broth microdilution method
# Streptococcus pneumoniae [11] = assay: Antimicrobial activity against penicillin-resistant Streptococcus pneumoniae clinical isolate after 18 to 22 hrs by broth microdilution method
# Streptococcus pyogenes = assay: Antimicrobial activity against Streptococcus pyogenes clinical isolate after 18 to 22 hrs by broth microdilution method
# [12] = test system: Staphylococcus haemolyticus; assay: Antimicrobial activity against Staphylococcus haemolyticus clinical isolate after 18 to 22 hrs by broth microdilution method
# Staphylococcus aureus = assay: Antimicrobial activity against methicillin-susceptible Staphylococcus aureus clinical isolate after 18 to 22 hrs by broth microdilution method
# Enterobacter cloacae [13] = assay: Antimicrobial activity against Enterobacter cloacae clinical isolate after 18 to 22 hrs by broth microdilution method
# Proteus vulgaris = assay: Antimicrobial activity against Proteus vulgaris clinical isolate after 18 to 22 hrs by broth microdilution method
# Serratia marcescens [14] = assay: Antimicrobial activity against AmpC beta-lactamase-producing Serratia marcescens clinical isolate after 18 to 22 hrs by broth microdilution method
# Serratia marcescens [15] = assay: Antimicrobial activity against Serratia marcescens clinical isolate after 18 to 22 hrs by broth microdilution method
# Pseudomonas aeruginosa = assay: Antimicrobial activity against Pseudomonas aeruginosa clinical isolate after 18 to 22 hrs by broth microdilution method
# Escherichia coli [16] = assay: Antimicrobial activity against class A extended spectrum beta-lactamase- and class D OXA- producing Escherichia coli clinical isolate after 18 to 22 hrs by broth microdilution method
# [17] = test system: Stenotrophomonas maltophilia; assay: Antimicrobial activity against Stenotrophomonas maltophilia clinical isolate after 18 to 22 hrs by broth microdilution method
# Enterococcus faecium = assay: Antimicrobial activity against vancomycin-resistant Enterococcus faecium clinical isolate after 18 to 22 hrs by broth microdilution method
# Morganella morganii = assay: Antimicrobial activity against Morganella morganii clinical isolate after 18 to 22 hrs by broth microdilution method
# Klebsiella oxytoca = assay: Antimicrobial activity against Klebsiella oxytoca clinical isolate after 18 to 22 hrs by broth microdilution method
# [18] = test system: Enterococcus casseliflavus; assay: Antimicrobial activity against Enterococcus casseliflavus clinical isolate after 18 to 22 hrs by broth microdilution method
# Enterobacter cloacae [19] = assay: Antimicrobial activity against AmpC beta-lactamase-producing Enterobacter cloacae clinical isolate after 18 to 22 hrs by broth microdilution method
# Escherichia coli [20] = assay: Antimicrobial activity against class A extended spectrum beta-lactamase- producing Escherichia coli clinical isolate after 18 to 22 hrs by broth microdilution method
compound,measurement,setting,value
C[C@H]1COc2c(N3CCN(C)CC3)c(F)cc3c(=O)c(C(=O)O)cn1c23.C[C@H]1COc2c(N3CCN(C)CC3)c(F)cc3c(=O)c(C(=O)O)cn1c23.O [LEVOFLOXACIN],MIC50,Citrobacter freundii,0.12 mg/L
same,MIC90,Citrobacter freundii,8 mg/L
same,MIC50,Proteus mirabilis,0.5 mg/L
same,MIC90,Proteus mirabilis,16 mg/L
same,MIC50,Acinetobacter junii,0.12 mg/L
same,MIC90,Acinetobacter junii,2 mg/L
same,MIC50,Enterococcus hirae,1 mg/L
same,MIC90,Enterococcus hirae,8 mg/L
same,MIC50,Enterococcus avium,2 mg/L
same,MIC90,Enterococcus avium,2 mg/L
same,MIC50,Acinetobacter lwoffii,0.12 mg/L
same,MIC90,Acinetobacter lwoffii,2 mg/L
same,MIC,Haemophilus influenzae,≤ 0.015 mg/L
same,MIC50,Haemophilus influenzae,≤ 0.015 mg/L
same,MIC90,Haemophilus influenzae,≤ 0.015 mg/L
same,MIC50,Providencia stuartii,1 mg/L
same,MIC90,Providencia stuartii,16 mg/L
same,MIC50,[1],0.12 mg/L
same,MIC90,[1],0.25 mg/L
same,MIC50,[2],0.12 mg/L
same,MIC90,[2],2 mg/L
same,MIC50,Klebsiella aerogenes [3],0.12 mg/L
same,MIC90,Klebsiella aerogenes [3],8 mg/L
same,MIC50,Enterococcus gallinarum,1 mg/L
same,MIC90,Enterococcus gallinarum,8 mg/L
same,MIC50,Enterococcus faecalis,1 mg/L
same,MIC90,Enterococcus faecalis,> 16 mg/L
same,MIC50,Klebsiella pneumoniae [4],0.5 mg/L
same,MIC90,Klebsiella pneumoniae [4],8 mg/L
same,MIC50,Escherichia coli [5],16 mg/L
same,MIC90,Escherichia coli [5],> 16 mg/L
same,MIC50,Klebsiella pneumoniae [6],1 mg/L
same,MIC90,Klebsiella pneumoniae [6],> 16 mg/L
same,MIC50,Klebsiella pneumoniae [7],0.06 mg/L
same,MIC90,Klebsiella pneumoniae [7],0.5 mg/L
same,MIC50,[8],2 mg/L
same,MIC90,[8],> 16 mg/L
same,MIC50,Enterococcus durans,1 mg/L
same,MIC90,Enterococcus durans,8 mg/L
same,MIC50,Streptococcus pneumoniae [9],0.5 mg/L
same,MIC90,Streptococcus pneumoniae [9],1 mg/L
same,MIC50,Burkholderia cepacia,2 mg/L
same,MIC90,Burkholderia cepacia,4 mg/L
same,MIC50,Moraxella catarrhalis,0.03 mg/L
same,MIC90,Moraxella catarrhalis,0.06 mg/L
same,MIC50,Klebsiella aerogenes [10],0.06 mg/L
same,MIC90,Klebsiella aerogenes [10],0.5 mg/L
same,MIC50,Streptococcus pneumoniae [11],1 mg/L
same,MIC90,Streptococcus pneumoniae [11],1 mg/L
same,MIC50,Streptococcus pyogenes,0.5 mg/L
same,MIC90,Streptococcus pyogenes,0.5 mg/L
same,MIC50,[12],8 mg/L
same,MIC90,[12],16 mg/L
same,MIC50,Staphylococcus aureus,0.25 mg/L
same,MIC90,Staphylococcus aureus,0.5 mg/L
same,MIC50,Enterobacter cloacae [13],0.06 mg/L
same,MIC90,Enterobacter cloacae [13],> 16 mg/L
same,MIC,Proteus vulgaris,0.03 mg/L
same,MIC50,Proteus vulgaris,0.03 mg/L
same,MIC90,Proteus vulgaris,0.12 mg/L
same,MIC50,Serratia marcescens [14],0.12 mg/L
same,MIC90,Serratia marcescens [14],8 mg/L
same,MIC50,Serratia marcescens [15],0.12 mg/L
same,MIC90,Serratia marcescens [15],4 mg/L
same,MIC50,Pseudomonas aeruginosa,1 mg/L
same,MIC90,Pseudomonas aeruginosa,> 16 mg/L
same,MIC50,Escherichia coli [16],16 mg/L
same,MIC90,Escherichia coli [16],> 16 mg/L
same,MIC50,[17],1 mg/L
same,MIC90,[17],4 mg/L
same,MIC,Enterococcus faecium,> 16 mg/L
same,MIC50,Enterococcus faecium,> 16 mg/L
same,MIC50,Morganella morganii,0.03 mg/L
same,MIC90,Morganella morganii,> 16 mg/L
same,MIC50,Klebsiella oxytoca,0.03 mg/L
same,MIC90,Klebsiella oxytoca,0.25 mg/L
same,MIC50,[18],1 mg/L
same,MIC90,[18],8 mg/L
same,MIC50,Enterobacter cloacae [19],0.12 mg/L
same,MIC90,Enterobacter cloacae [19],8 mg/L
same,MIC50,Escherichia coli [20],8 mg/L
same,MIC90,Escherichia coli [20],> 16 mg/L
